For 9 compounds, TGI and GI50 results are on record in PubChem BioAssay (NCI).

Assay in all cases: DTP human tumour cell line panel, 48 h
For test [1], the system named is MDA-MB-231 breast.
The subject of test [2] is MCF7 breast.
For test [3], the system named is OVCAR-5 ovarian.
The subject of test [4] is DU-145 prostate.
The test system of test [5] is KM12 colon.
Test [6] has as its system LOX IMVI melanoma.
Test [7] has as its system BT-549 breast.
In test [8] the test system is SR leukemia.
Test [9] concerns SK-MEL-28 melanoma.
For test [10], the system named is SF-539 CNS.

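Cultured in 96-well plates, cells were exposed to test compound for 48 hours across five concentrations. Here, GI50 denotes the concentration required for 50% inhibition of growth. Definition used: TGI = concentration required for complete inhibition of growth.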

Broadly, the TGI is the concentration at which net growth stops. Turning to `O=C(O)c1ccc([N+](=O)[O-])c(P(=O)(O)O)c1`, the TGI in test [1], in test [2], in test [3], in [4], in test [5] and in test [6] was over 100 µM each time. The TGI in test [7], in [8], in test [9] and in [10] was over 100 µM throughout.

As usually defined, the GI50 is the concentration at which growth is held to half of that of the control. Turning to `CN(C)c1cc2c(Nc3ccc4nc(Cc5ccccc5)[nH]c4c3)ncnc2cn1`, the GI50 was over 17.4 µM in [1]; over 15.3 µM in test [2]; 16.6 µM in test [3]; 12.1 µM in test [4]; 13.8 µM in test [5]; over 17.4 µM in [6]. In addition, the GI50 in test [7] is over 18.2 µM; in test [8], 8.79 µM; in [9], over 12.4 µM; in test [10], 14.4 µM. In addition, the TGI in test [1], in test [2], in test [3], in [4], in [5] and in test [6] was over 25 µM in each case. The TGI was over 25 µM in [7], over 25 µM in test [8], over 20 µM in [9] and over 25 µM in test [10].

`CCS(=O)(=O)c1ccc(OC)c(Nc2ncc(-c3cccc(-c4ccccc4F)c3)o2)c1`: the GI50 in test [1] was 14.1 µM; in test [2], over 21 µM; in test [3], 13 µM; in test [4], over 25 µM; in test [5], 0.833 µM; in test [6] it was 15.1 µM. In addition, the GI50 in test [7] was over 22.2 µM; in test [8] it was over 25 µM; in test [9], over 25 µM; in [10], 7.81 µM. For the same compound, the TGI in test [1], in test [2], in test [3], in test [4], in test [5] and in test [6] was over 25 µM in each case. Besides, the TGI in test [7], in [8], in [9] and in test [10] was over 25 µM in each case.

`CCN(CC)CC(O)CNc1ccc(NCC(O)CCl)c2c1C(=O)c1ccccc1C2=O` (centres undefined): the TGI in [1] came out at 27.8 µM; in test [2], 15.3 µM; in [3] it was 29.2 µM; in [4], 29.3 µM; in test [5], 17 µM; in [6], 2.17 µM. For the same compound, the concentration for total growth inhibition (TGI) in test [7] is 23.5 µM; in [8], 11.6 µM; in test [9], 25.4 µM; in test [10], 19.1 µM.

For `COc1cc(C2=Nc3c/c(=C\c4c(O)[nH]c5ccc(Cl)cc45)ccc3=N2)cc(OC)c1OC`, the GI50 in test [1] was 1.5 µM; in test [2], 1.43 µM; in [3], 12 µM; in test [4], 2.34 µM; in [5], 3.09 µM; in test [6], 1.74 µM. For the same compound, the GI50 in test [7] is 2.51 µM; in [8], 1.94 µM; in [9] it was 3.2 µM; in test [10] it was 4 µM. The TGI stood at 6.26 µM in test [1]; 3.56 µM in [2]; 38.8 µM in test [3]; 5.19 µM in test [4]; 12.2 µM in test [5]; 4.3 µM in [6]. Also, the TGI in [7] was 9.94 µM; in test [8], 5.05 µM; in test [9], 12.7 µM; in test [10], 15.9 µM.

With `O=C(Nc1cccc(-n2cc(-c3ccncc3)c(-c3cc(O)cc(Cl)c3)n2)c1)Nc1ccc(Cl)c(Cl)c1`, the GI50 was 1.01 µM in test [1]; 2.8 µM in test [2]; 2.14 µM in test [3]; 2.8 µM in test [4]; 1.5 µM in test [5]; 2.06 µM in test [7]. Besides, the GI50 in test [8] is 1.31 µM; in test [9], 2.14 µM; in test [10] it was 1.44 µM. For the same compound, the TGI in test [1] was 7.7 µM; in test [2], 9.75 µM; in test [3] it was 6.16 µM; in [4], 10.1 µM; in test [5] it was 3.69 µM; in [7], 5.22 µM. In addition, the concentration for total growth inhibition (TGI) in [8] is 4.24 µM; in test [9] it was 5.55 µM; in [10] it was 3.27 µM.

Turning to `Nc1ccn(C2OC(CO[P+](=O)OC3C(CO[P+](=O)OC4C(CO[P+](=O)OC5C(CO[P+](=O)OC6C(CO[P+](=O)OC7C(CO[P+](=O)OC8C(CO[P+](=O)OC9C(CO[P+](=O)OC%10C(CO[P+](=O)OC%11C(CO)OC(n%12ccc(N)nc%12=O)C%11(F)F)OC(n%11ccc(N)nc%11=O)C%10(F)F)OC(n%10ccc(N)nc%10=O)C9(F)F)OC(n9ccc(N)nc9=O)C8(F)F)OC(n8ccc(N)nc8=O)C7(F)F)OC(n7ccc(N)nc7=O)C6(F)F)OC(n6ccc(N)nc6=O)C5(F)F)OC(n5ccc(N)nc5=O)C4(F)F)OC(n4ccc(N)nc4=O)C3(F)F)C(O)C2(F)F)c(=O)n1` (centres undefined), the GI50 in test [1] was 0.522 µM; in [3] it was 9.59 µM; in test [4], 0.0239 µM; in [5] it was 2.03 µM; in test [7], 0.426 µM; in [9], over 100 µM. The TGI is over 100 µM in test [1]; over 100 µM in [2]; over 100 µM in test [3]; 0.13 µM in test [4]; over 100 µM in test [5]; over 100 µM in [6]. The total growth inhibition concentration (TGI) in test [8] was 0.507 µM; in [9], over 100 µM.

Take `Nc1ccccc1C#Cc1ccccc1C#Cc1ccccc1N`: the GI50 is 9.04 µM in test [1]; 12.4 µM in test [2]; 27.6 µM in [3]; 11.3 µM in test [4]; 2.97 µM in test [5]; 7.31 µM in [6]. Moreover, the GI50 in test [7] is 5.41 µM; in [9], 15.1 µM; in test [10], 5.4 µM. Besides, the TGI in test [1] was 24.6 µM; in test [2] it was over 100 µM; in test [3], 67.4 µM; in [4] it was 28.6 µM; in test [5] it was 14.7 µM; in test [6], 20.9 µM. Also, the results for the TGI in [7], in [9] and in test [10] were 24.7 µM, 87.8 µM and 21.1 µM, respectively.

As for `Cc1cc(NC(=O)NC(=O)c2ccccc2[N+](=O)[O-])ccc1Oc1ncc(Cl)cn1`, the concentration for total growth inhibition (TGI) in test [1] is 26.9 µM; in [2], over 100 µM; in test [3] it was over 100 µM; in [4] it was over 100 µM; in test [5], 13 µM; in test [6], over 100 µM. Also, the TGI in [7] came to 91.5 µM; in test [9] it was 98 µM; in test [10], 9.5 µM.
